The text below walks through data of patent publication US20250145633A1, “SUBSTITUTED FURANOPYRIMIDINE COMPOUNDS AS PDE1 INHIBITORS” (Dart NeuroScience, LLC, priority 2017, published 2025).

For this assay, the target named is human PDE1B enzyme (Homo sapiens (Human), UniProt Q01064). The assay can be described thus: IMAP TR-FRET PDE1B enzymatic assay. Type of assay: biochemical. The conditions noted are these: negative log of half-maximal molar inhibitory concentration; 200 nM FAM-cAMP; values given as bins; read-out: PDE1b (pIC50) (converted). In outline: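 Full-length GST-tagged human PDE1B (250 pg/well) in IMAP BSA buffer with 10 U/ml calmodulin and 2.5 mM CaCl2; compound pre-incubated 5 min at room temperature, then 200 nM (final) FAM-cAMP for 30 min. IMAP binding reagent/Tb added, 1 h; TR-FRET 520/490 ratio read. IC50 from sigmoidal dose-response fit.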
A general note: In TR-FRET formats the signal depends on donor and acceptor labels being close together.
Turning to `Cc1oc2ncnc(NC3(C)CC3)c2c1C(=O)N1CCCN(c2ccccc2F)CC1` [Example 156, 5-[4-(2-Fluorophenyl)-1,4-diazepane-1-carbonyl]-6-methyl-N-(1-methylcyclopropyl)furo[2,3-d]pyrimidin-4-amine], the IC50 is 10 to 100 nM.
Then `Cc1oc2ncnc(NC3(C)CC3)c2c1C(=O)N1CCCN(c2ccccc2)CC1` [Example 157, 6-Methyl-N-(1-methylcyclopropyl)-5-(4-phenyl-1,4-diazepane-1-carbonyl)furo[2,3-d]pyrimidin-4-amine], with 100 to 1000 nM; and `Cc1oc2ncnc(NC3(C)CC3)c2c1C(=O)N1CCCN(c2ccccn2)CC1` [Example 158, 6-Methyl-N-(1-methylcyclopropyl)-5-[4-(pyridin-2-yl)-1,4-diazepane-1-carbonyl]furo[2,3-d]pyrimidin-4-amine], with 100 to 1000 nM; and `COc1ccc(N2CCCN(C(=O)c3c(C)oc4ncnc(NC5(C)CC5)c34)CC2)cc1` [Example 159, 5-[4-(4-Methoxyphenyl)-1,4-diazepane-1-carbonyl]-6-methyl-N-(1-methylcyclopropyl)furo[2,3-d]pyrimidin-4-amine], with 100 to 1000 nM.
Then `Cc1oc2ncnc(NC3(C)CC3)c2c1C(=O)N1CCN(c2ccnc(F)c2)CC1` [Example 160, 5-[4-(2-fluoropyridin-4-yl)piperazine-1-carbonyl]-6-methyl-N-(1-methylcyclopropyl)furo[2,3-d]pyrimidin-4-amine], with 10 to 100 nM; and `Cc1oc2ncnc(NC3(C)CC3)c2c1C(=O)N1CCN(c2cc(F)ncn2)CC1` [Example 161, 5-[4-(6-Fluoropyrimidin-4-yl)piperazine-1-carbonyl]-6-methyl-N-(1-methylcyclopropyl)furo[2,3-d]pyrimidin-4-amine], with 10 to 100 nM; and `Cc1oc2ncnc(NC3(C)CC3)c2c1C(=O)N1CCN(c2ccnc(F)n2)CC1` [Example 162, 5-[4-(2-Fluoropyrimidin-4-yl)piperazine-1-carbonyl]-6-methyl-N-(1-methylcyclopropyl)furo[2,3-d]pyrimidin-4-amine], with 10 to 100 nM.
Under `Cc1oc2ncnc(NC3(C)CC3)c2c1C(=O)NCc1ccncc1F` [Example 163, N-[(3-Fluoropyridin-4-yl)methyl]-6-methyl-4-[(1-methylcyclopropyl)amino]furo[2,3-d]pyrimidine-5-carboxamide] stands 10 to 100 nM; under `Cc1oc2ncnc(NC3(C)CC3)c2c1C(=O)NCc1ccnc(F)c1` [Example 164, N-[(2-Fluoropyridin-4-yl)methyl]-6-methyl-4-[(1-methylcyclopropyl)amino]furo[2,3-d]pyrimidine-5-carboxamide], 10 to 100 nM.
Regarding `Cc1oc2ncnc(NC3(C)CC3)c2c1C(=O)NC1CCCC1` [Example 165, N-Cyclopentyl-6-methyl-4-[(1-methylcyclopropyl)amino]furo[2,3-d]pyrimidine-5-carboxamide], the IC50 is 10 to 100 nM.
Turning to `CCCCCNC(=O)c1c(C)oc2ncnc(NC3(C)CC3)c12` [Example 167, 6-Methyl-4-[(1-methylcyclopropyl)amino]-N-pentylfuro[2,3-d]pyrimidine-5-carboxamide], the IC50 is 10 to 100 nM.
Take `Cc1oc2ncnc(NC3(C)CC3)c2c1C(=O)NCCC(C)C` [Example 168, 6-Methyl-N-(3-methylbutyl)-4-[(1-methylcyclopropyl)amino]furo[2,3-d]pyrimidine-5-carboxamide]: the IC50 was 10 to 100 nM.
On to `CCC(CC)NC(=O)c1c(C)oc2ncnc(NC3(C)CC3)c12` [Example 169, 6-Methyl-4-[(1-methylcyclopropyl)amino]-N-(pentan-3-yl)furo[2,3-d]pyrimidine-5-carboxamide], for which the IC50 was 10 to 100 nM.
Under `Cc1oc2ncnc(NC3(C)CC3)c2c1C(=O)NC(C)C(C)C` (centres unmarked) [Example 170, 6-Methyl-N-(3-methylbutan-2-yl)-4-[(1-methylcyclopropyl)amino]furo[2,3-d]pyrimidine-5-carboxamide] stands 10 to 100 nM.
